# From the supplement of paper PMC10307832
# Experiments:
# Test in all cases: relative viability (nuclei count vs DMSO), 5 days (fraction); higher = more cells survive
# [1] = compound: C1COCCN1C2=CC(=O)C3=C(O2)C(=CC=C3)C4=CC=CC5=C4SC6=CC=CC=C56
# In short: (§1)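 Lung cancer cell lines received five library-drug doses (not always all listed) spaced by √10, pinned on vehicle-anchored 1536-well plates after an overnight stay at 37 °C. Five days later, with no medium change, nuclei were Hoechst-stained, imaged at 4× and counted with MetaXpress. Viability is treated-well nuclei relative to vehicle-well nuclei, as a median across plates. Passing plates had control CV below 25% and at least one doubling.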
# [2] = compound: CCN(CC)CCCCNc1ncc2cc(-c3cc(OC)cc(OC)c3)c(NC(=O)NC(C)(C)C)nc2n1
# In short: as §1
# PRIMA-1MET = compound: COCC1(CO)C(=O)C2CCN1CC2 [PRIMA-1MET]
# In short: as §1
# Zibotentan = compound: COc1nc(C)cnc1NS(=O)(=O)c1cccnc1-c1ccc(-c2nnco2)cc1 [Zibotentan]
# In short: as §1
# [3] = compound: O=c1cc(-c2cccc3c2Sc2ccccc2S3)oc(N2CCOCC2)c1
# In short: as §1
Cell Line,relative viability ([1]; 0.01 µM),relative viability ([1]; 0.03162 µM),relative viability ([1]; 0.1 µM),relative viability ([1]; 0.3162 µM),relative viability ([1]; 1 µM),relative viability ([2]; 0.01 µM),relative viability ([2]; 0.03162 µM),relative viability ([2]; 0.1 µM),relative viability ([2]; 0.3162 µM),relative viability ([2]; 1 µM),relative viability (PRIMA-1MET; 0.2 µM),relative viability (PRIMA-1MET; 0.6325 µM),relative viability (PRIMA-1MET; 2 µM),relative viability (PRIMA-1MET; 6.325 µM),relative viability (PRIMA-1MET; 20 µM),relative viability (Zibotentan; 0.08 µM),relative viability (Zibotentan; 0.253 µM),relative viability (Zibotentan; 0.8 µM),relative viability (Zibotentan; 2.53 µM),relative viability ([3]; 0.08 µM),relative viability ([3]; 0.253 µM),relative viability ([3]; 0.8 µM),relative viability ([3]; 2.53 µM),relative viability ([3]; 8 µM)
COR-L 105,0.88,0.926,0.943,0.899,0.914,0.838,0.914,1.1,1.06,0.835,1,0.899,0.818,0.835,0.175,1.01,0.861,0.959,1.02,0.811,1.04,0.871,0.835,0.978
HCC-827,1.04,1.11,1.02,1.06,0.992,1.04,1.07,1.08,1.06,1,0.986,0.952,0.791,1.02,1.02,1.05,1.04,1.05,1.01,1.04,1.07,1.05,0.773,1.06
RERF-LC-KJ,0.992,0.974,1.03,0.949,0.956,1.02,1.11,1.04,1.06,0.978,1.11,1.01,1.06,1.12,0.952,1.02,0.925,0.904,1.03,0.932,1.09,1.03,0.968,0.929
NCI-H1915,1.04,1.08,1.06,0.995,1.05,1.08,1.04,1.02,1.12,1.01,0.954,0.859,0.734,1,0.957,1.06,0.986,0.973,1.01,0.988,1.02,1.13,0.993,1.04
HCC-44,0.981,1.04,1.01,0.979,0.933,0.982,0.976,1.07,1.05,1.06,1.05,0.921,1.04,0.922,0.974,1.07,0.935,0.978,0.986,0.956,1.04,0.919,0.905,1.04
NCI-H322M,0.895,1.01,–,0.97,0.77,0.926,0.923,1.05,1.07,0.871,1.13,0.831,–,1.11,0.838,1.03,0.818,0.906,0.983,0.841,0.969,0.848,0.879,0.875
Calu-6,1.05,1.06,1.08,1.01,1.05,0.989,1.1,1.11,1.11,1.02,1.06,0.977,0.97,0.948,0.812,1.04,0.932,0.979,1,1,1.1,1.05,0.955,0.924
SK-MES-1,1,1,0.999,0.988,0.934,1.09,1.07,1.08,1.08,1.01,1.1,1,0.993,1.09,0.98,1.01,0.911,0.955,1.07,1,1.16,0.927,0.933,0.928
NCI-H1793,0.888,0.786,0.918,0.896,0.806,0.903,0.933,1.03,0.944,0.683,0.936,0.815,–,1.08,0.923,0.938,0.862,0.801,1.03,0.819,1.3,0.857,0.771,0.805
NCI-H2347,1.11,0.979,0.957,0.981,0.988,0.998,1.01,1.12,1.15,0.931,0.961,0.959,0.779,1.11,1.02,1.04,0.95,1.12,1.06,0.96,1.07,1.1,1.13,1.13
EPLC-272H,1.01,0.947,0.676,1.04,0.87,1.04,0.686,1.03,1.05,0.703,0.862,0.839,0.943,1.03,0.831,0.945,1.07,0.863,0.911,0.936,0.939,0.959,0.907,1.18
NCI-H661,0.965,1.01,0.98,0.991,0.969,1.06,1,1.03,1.09,0.993,1.03,0.917,0.991,1,0.957,1.01,0.912,0.951,0.987,0.996,1,0.948,0.942,0.951
COR-L23,1,1,1.01,1.02,1.06,1.1,1.14,1.33,1.16,1.11,1.33,0.936,0.94,1.11,0.0329,1.06,1.06,1.01,1.03,1.03,1.37,1.12,1.03,1.14
NCI-H358,0.857,0.93,1.04,1.07,1.05,0.899,0.933,1.05,1.15,0.815,1.09,0.775,0.829,1.07,0.451,0.954,0.675,0.924,0.956,0.807,1.04,0.985,0.988,0.888
NCI-H2009,1.02,0.995,1.01,0.982,0.927,1.05,1.06,1.04,1.07,0.979,0.944,0.976,1.03,1.04,0.0681,1,0.968,1.07,1.06,0.987,1.03,0.962,0.93,0.869
NCI-H1734,0.977,1.01,0.883,0.997,0.964,0.949,1.1,1.09,1.03,0.85,1.03,0.75,0.734,0.945,0.0584,1.04,0.884,1.02,1,0.98,1.13,1.1,–,1.13
NCI-H460,0.971,0.993,1.01,1,0.989,0.994,1.05,1.14,1.09,0.959,1.01,0.859,0.86,1.02,0.592,1.04,0.838,0.926,0.995,1,1.13,0.918,0.935,1.08
SW 900,0.793,0.811,0.721,0.942,0.853,0.907,1.11,0.804,1.02,0.717,0.984,0.757,0.637,0.804,0.0765,0.918,0.75,0.851,0.921,0.622,0.892,0.942,0.809,0.774
NCI-H1666,0.996,0.959,1.01,1.02,0.953,0.942,0.993,1,1.17,0.973,0.993,0.868,0.962,0.938,0.942,1.02,0.879,1.03,1.06,0.94,1.09,1.02,0.911,1
NCI-H2342,1.01,1.04,0.955,0.959,0.875,0.932,0.899,0.971,1.09,1.06,1.07,1.05,0.693,0.974,0.915,0.937,0.945,0.944,0.942,0.836,1.07,0.964,0.982,1.04
LC-2-ad,1.01,1.07,1.01,1.01,1.01,1.02,1.05,1.1,1.15,0.88,1.03,0.84,0.819,1.05,0.935,1.03,0.868,0.993,1.03,0.924,1.1,1.06,0.967,1.02
NCI-H520,1.08,1.06,0.98,1.02,0.955,0.962,1,0.965,0.763,0.306,1.09,0.722,0.678,0.817,0.163,1.14,0.924,0.801,1.15,0.95,1.2,1.12,0.906,0.997
NCI-H1703,1.19,0.926,0.964,0.958,0.861,0.832,0.854,1.19,1.04,0.723,1.19,0.852,0.815,0.797,0.0528,0.972,0.94,1.25,0.505,0.718,1.01,1.03,0.925,0.843
LCLC-103H,1.06,1.02,1.01,0.903,0.997,1.01,1.01,1.02,0.952,0.687,1.04,0.875,0.805,1.02,0.993,1.08,0.98,0.923,1.01,0.96,1.01,1,0.953,1.05
NCI-H2023,1.05,1.1,1.04,0.973,0.908,0.914,1.09,1.16,1.05,0.854,1.3,0.888,0.955,0.97,0.826,1.06,0.794,0.899,1,0.923,1.12,0.972,0.865,0.888
NCI-H1944,1,1.01,1.02,0.997,0.949,0.945,0.875,1.06,0.985,0.894,1.06,0.782,0.695,0.927,0.924,1.07,0.94,0.874,1.01,0.938,1.09,0.905,0.752,1.09
HCC-15,0.963,1.14,1.08,0.968,1.03,1.08,1.03,1.08,1.2,0.957,0.967,0.856,0.936,1.01,0.874,0.995,0.994,1.09,1.01,0.954,1.13,1.06,0.94,1.06
NCI-H1975,0.941,0.985,0.866,0.97,1.04,0.993,0.87,1.01,1.2,0.882,1.05,0.937,0.847,1.04,0.753,0.966,0.882,0.892,1.01,0.907,1.12,0.836,0.936,0.966
